“Also recorded” adds a separate entry of the source.
Key:
[1] = system: collagen build-up in the lung induced by bleomycin; details: cited from earlier work
[2] = system: cultured renal fibroblasts, epithelial cells and mesangial cells; details: cited from earlier work
[3] = system: scleroderma (systemic sclerosis); details: cited from earlier work
[4] = system: human fibroblasts; details: cited from earlier work
[5] = in vivo; cited from earlier work
[6] = Circular dichroism spectroscopy of relaxin-2 fold and stability; assay type: physicochemical
Protocol: Relaxin-2 loaded PLGA microparticles (RMPs) were prepared based on the water/oil/water (w/o/w) method as described by Igartua, M., et. al., International Journal of Pharmaceutics, 1998, 169(1): 45-54 at 1.27 x 10-3 wt % loaded relaxin as determined by ELISA analysis. Significant optimization and tailoring of the method was required to obtain the particle. Amounts, time, temperature, mixing speed, polymer LA:GA content were all varied to identify a unique non-obvious set of conditions to prepare the polymer. […] Relaxin-2 in the relaxin-2 microparticles maintained its native secondary and tertiary structure through the w/o/w double-emulsion process. […] Additionally, relaxin-2 was stable at 37° C. over 2 months (FIG. 2, right). The relaxin-2 PLGA microparticles were prepared with batch-to-batch consistency and were resuspended in PEG-600 to reduce aggregation and flocculation, as well as to ease administration through a 23G needle.
Two amphiphilic hydrogels were synthesized for the physical entrapment of relaxin-2 in order to control its sustained release (FIG. 6). These amphiphilic molecules melted at 95 °C and congealed when slowly cooled back to room temperature strictly from non-covalent interactions. The alkyl chain of 1 and alkyl fluoride chain of 2 allow for hydrophobic interactions between each molecule, while the […] and thymidine moieties allow for pi-pi stacking. Lastly, the deoxyribose and glucose groups facilitate hydrogen bonding (Godeau, G., et al., Tetrahedron Letters 2010, 51: 1012-1015; Ramen, F.A. et al., Biomaterials. 2017, 145: 72-80). Together, these amphiphilic molecules create unique and stable supramolecular assemblies that are stable at 37 °C for at least two weeks. This stability feature is another novel finding and benefit to the use of the hydrogels. Three gels of each 1 and 2 were created with bovine serum albumin and relaxin-2 at different densities by dissolving each molecule in a solution of phosphate buffered saline with protein and heating to 95 °C for 30 minutes. […] After cooling down to room temperature, relaxin-2-loaded gels were fully congealed (FIG. 7, right).

[7] = system: collagen I expression in human fibroblast-like synoviocytes (HFLS); assay: Collagen I expression in HFLS treated with relaxin-2 microparticles in transwells; assay type: cell-based
Excerpt: Human fibroblast-like synoviocytes (HFLS) treated with relaxin-2 microparticles in transwells allow for evaluation of the release and efficacy of released relaxin-2 at various time points. […] In the presence of relaxin-2, collagen I is expressed at 20 to 30 % of the basal level at weeks 1, 3, and 4.

[8] = system: heart failure; details: 30 micrograms/kg/day for 2 days, intravenous infusion; cited from earlier work
[9] = system: shoulder joint (arthrofibrosis); assay: Histological analysis of the shoulder joint in rat shoulder contracture model; assay type: in vivo; details: immobilized shoulders of rats; mIA of relaxin-2 or relaxin loaded microparticles
[10] = system: stiff shoulder (shoulder contracture), glenohumeral joint; assay: Range of motion in rat shoulder contracture model; assay type: in vivo, rats
Protocol: The study was approved by the Institutional Animal Care and Use Committee, and 10 Sprague-Dawley rats (250-300 g, Charles River Laboratories, Wilmington, MA, USA) were used in the study. For each animal, torque was measured per degree, on the intact left shoulder as a function of rotation angle between 80° of internal rotation (negative values by convention) and 60° of external rotation (positive values by convention) prior to any surgical intervention (baseline). […] Therefore, torque values at 60° external rotation (rOUT) and 80° of internal rotation (τINT) were recorded for each animal.
The left forelimb of each animal was immobilized using extraarticular internal fixation. Under isoflurane anesthesia, a longitudinal skin incision was made perpendicular to the scapular spine. Two No. 2-0 braided polyester sutures (Ethibond Excel, Ethicon - San Lorenzo, PR, USA) were passed between the medial border of the scapula and the humeral shaft and tightened to immobilize the shoulder joint (FIG. 1, panel A). Muscular structures were not manipulated during surgery, and the animals were allowed normal activity in their cages immediately after the procedure.
After 8 weeks of immobilization, the restraining sutures were removed, and the 10 animals were divided into two groups to evaluate changes in ROM (ROM group, n = 5) and joint stiffness (stiffness group, n = 5). In the ROM group, changes in kinematics were longitudinally quantified in the follow-up period by measuring the ROM achieved with the τOUT and τINT measured at baseline. This was conducted to evaluate whether immobilization mediated a significant reduction in ROM. In the stiffness group, joint kinetics were examined by measuring the differences in τOUT and τINT needed to achieve the original 80° of internal rotation and 60° of external rotation, respectively. […]
To reproducibly capture ROM and torque, passive limb rotation was performed by a stepper motor controlled with a microcontroller (UNO R3, Arduino - Torino, Italy). […] In the ROM group, pre-set programmable torque values, specific for each animal and measured at baseline (τOUT and τINT), were used as input variables in order to detect changes in rotation ROM with 0.2° resolution. […]
This study investigated the effects of recombinant human relaxin-2 on the kinetics and kinematics of the glenohumeral joint in an animal model of shoulder contracture, as described in Villa-Camacho et al., Journal of Shoulder and Elbow Surgery, 2015, 24(11): 1809-16. […] For each animal, torque was measured per degree, on the intact left shoulder as a function of rotation angle between […] and 60° of external rotation prior to any surgical intervention. […]

Relaxin-2
lung collagen build-up [1]: decreased collagen build-up in the lung induced by bleomycin
TGF-β-induced fibronectin levels [2]: decreased TGF-β-induced fibronectin levels
primary endpoint of effectiveness ([3]; 25 micrograms/kg/day for 24 weeks, subcutaneous delivery): did not meet the trial’s primary endpoint of effectiveness
renal adverse events ([3]; human, in vivo, sc): declines in creatine clearance and renal adverse events
collagen and fibronectin levels [4]: reduction in levels of collagen types I and III and fibronectin
pharmacokinetic profile [5]: rapid pharmacokinetic profile
time stable at 37° C. without loss of alpha helical structure [6]: up to 2 months
time stable at 37° C. without loss of alpha helical structure ([6]; listed as relaxin-2): 2 months
conformation after incubation at 95° C. ([6]; 95° C., at least one hour): maintains its folded 3D structure; also recorded: tolerant to incubation for at least one hour
secondary (alpha helical) structure after the double emulsion process ([6]; w/o/w double emulsion of PLGA microparticle synthesis): no change; also recorded: unaffected by the double emulsion process
antifibrotic efficacy (downregulation of collagen I expression) of released relaxin-2 ([7]; HFLS / synoviocytes, over four weeks, versus untreated control): significant downregulation in collagen I expression
collagen I level by densitometry (reduced to) ([7]; synoviocytes, legend of FIG. 4 breaks off): approximately 50%
primary endpoint of effectiveness [8]: did not meet the trial’s primary endpoint of effectiveness
histology: adhesions / hallmarks of arthrofibrosis [9]: lacked any apparent adhesions
internal ROM ([10]; intravenous injection at a much greater dose): similarly constricted internal ROM compared with the untreated control group
internal ROM ([10]; relaxin-2 as mIA (5 intraarticular injections of 2 ug/kg every other day), RMP as single injection of approximately 10 ug/kg): significant increase back to healthy baseline by week 2
internal ROM ([10]; relaxin-2 as mIA (5 intraarticular injections of 2 ug/kg every other day), RMP as single injection of approximately 10 ug/kg, listed as relaxin-2): restoration of internal ROM to baseline measurements
internal ROM ([10]; singular articular injection): similarly constricted internal ROM compared with the untreated control group
